Results taken from patent US12564600B2, “System for enhancing therapeutic compliance of the anti-cancer compound E7766” (Eisai R&D Management Co., Ltd., priority 2019, dated 2026).
“Also recorded” adds a separate entry of the source.

How the values were obtained:
Permeability (Papp) = format: in vitro ADME; conditions: not told
OATP1B1/1B3 [1] = assay: Pharmacokinetics in humanized OATP1B1/1B3 mice with or without rifampin co-dose; format: in vivo; conditions: 0.5 mg/kg IV, rifampin 30 mg/kg
Experimental: Age-matched Oatp1a/1b cluster-knockout, OATP1B1- or OATP1B3-knockin mice humanized on the Oatp1a/1b-knockout background, and wild-type FVB male mice were purchased from Taconic Biosciences (Hudson, N.Y., USA). Mice were between 8 and 10 weeks of age (22-34 g) at the time of study. Compound 1 was administered at a dose of 0.5 mg/kg coadministered with either vehicle or rifampin (30 mg/kg). Blood and liver samples were collected at 0.083, 0.25, 0.5, 1, 1.5, 3, 6 hours. Plasma was isolated from blood samples by centrifugation. All samples were stored at −80° C. until bioanalysis.
Compound 1 was dosed via intravenous administration to WT, humanized, and KO mice. Blood, urine, and feces were collected from the animals over 6 hours. Blood spots were collected and expelled FTA™ DMPK-B DBS Card (GE Healthcare, Life Sciences, Whatman™) within the appropriate sample circle. Pharmacokinetics of Compound 1 in WT animals was also assessed after co-administration with rifampin. Liver samples were also collected from WT animals and frozen until analysis. All samples were analyzed using LC-MS/MS and the pharmacokinetics parameters of Compound 1 were determined with Phoenix WinNonlin using non-compartmental analysis.
FIG. 2A through 2C show an in vivo PK profile and elimination of Compound 1 with and without a co-dose of the Oatp/OATP inhibitor Rifampin in different mouse models.

OATP1B3 = biological target: T1, OATP1B3 (Homo sapiens, UniProt Q9NPD5); assay: Uptake in HEK293 cells overexpressing OATP1B3; format: in vitro ADME
T1 construct: expressed in transfected cells; host or cells: HEK293-FT
T1 sequence (Q9NPD5 1-702): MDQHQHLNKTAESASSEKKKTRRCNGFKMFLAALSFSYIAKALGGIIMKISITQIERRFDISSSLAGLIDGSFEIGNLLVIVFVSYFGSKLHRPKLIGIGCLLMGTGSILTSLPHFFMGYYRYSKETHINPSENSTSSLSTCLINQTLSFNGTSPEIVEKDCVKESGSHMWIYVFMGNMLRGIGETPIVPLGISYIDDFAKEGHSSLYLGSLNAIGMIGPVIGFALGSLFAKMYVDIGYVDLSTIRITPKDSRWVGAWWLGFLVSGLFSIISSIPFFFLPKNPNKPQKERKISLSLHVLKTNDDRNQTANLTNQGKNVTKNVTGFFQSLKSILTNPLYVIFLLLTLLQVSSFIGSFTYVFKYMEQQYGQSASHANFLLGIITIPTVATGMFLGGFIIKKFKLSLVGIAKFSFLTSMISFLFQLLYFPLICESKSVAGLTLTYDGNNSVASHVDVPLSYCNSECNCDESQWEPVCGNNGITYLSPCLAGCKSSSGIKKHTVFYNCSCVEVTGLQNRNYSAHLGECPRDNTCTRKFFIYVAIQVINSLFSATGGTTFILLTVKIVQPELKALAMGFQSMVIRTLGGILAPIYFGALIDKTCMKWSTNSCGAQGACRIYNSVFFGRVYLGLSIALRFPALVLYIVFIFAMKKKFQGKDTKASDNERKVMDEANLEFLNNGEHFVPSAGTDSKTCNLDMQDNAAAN
Experimental: TransportoCells™ (Corning, N.Y., USA) expressing OATP2B1, NTCP, and HEK293-FT cells stably transfected with the vector containing OATP1B1 cDNA or OATP1B3 cDNA or empty vector were grown in a Dulbecoo's modified Eagle's medium fortified with 10% fetal calf serum and 2 mmol/L sodium butyrate (for NTCP only) in a humidified incubator at 37° C. and 5% CO2. Cells were harvested at 90% confluence and then seeded in poly-D-lysine-coated 24-well 24 h prior to transporter assay. Cells were washed twice and pre-incubated with 200 μL of pre-warmed Krebs-Henseleit buffer. After pre-incubation, cells were incubated with 3 or 10 μmol L-1 of Compound 1 in presence or absence of 100 μmol L-1 of inhibitors (Rifamycin SV for OATP2B1, Troglitazone for NTCP, Rifamycin for OATP1B1 and OATP1B3). The transport reaction was terminated by aspirating the buffer from the wells at designated time. After washing three times with 200 μL of ice-cold Krebs-Henseleit buffer, the cells were lysed and the resulting cellular lysates were analyzed by LC-MS/MS.
Concentration-dependent uptake of Compound 1 via OATP1B1 and OATP1B3 were conducted with a concentration range of 0.25-100 μmol L-1 under linear uptake. All experiments were run in triplicates.

MRP2 = biological target: T2, MRP2 (Homo sapiens, UniProt Q92887); assay: Transport in MRP2 expressing membrane vesicles; format: in vitro ADME
T2 construct: purchased Corning
T2 sequence (Q92887 whole entry): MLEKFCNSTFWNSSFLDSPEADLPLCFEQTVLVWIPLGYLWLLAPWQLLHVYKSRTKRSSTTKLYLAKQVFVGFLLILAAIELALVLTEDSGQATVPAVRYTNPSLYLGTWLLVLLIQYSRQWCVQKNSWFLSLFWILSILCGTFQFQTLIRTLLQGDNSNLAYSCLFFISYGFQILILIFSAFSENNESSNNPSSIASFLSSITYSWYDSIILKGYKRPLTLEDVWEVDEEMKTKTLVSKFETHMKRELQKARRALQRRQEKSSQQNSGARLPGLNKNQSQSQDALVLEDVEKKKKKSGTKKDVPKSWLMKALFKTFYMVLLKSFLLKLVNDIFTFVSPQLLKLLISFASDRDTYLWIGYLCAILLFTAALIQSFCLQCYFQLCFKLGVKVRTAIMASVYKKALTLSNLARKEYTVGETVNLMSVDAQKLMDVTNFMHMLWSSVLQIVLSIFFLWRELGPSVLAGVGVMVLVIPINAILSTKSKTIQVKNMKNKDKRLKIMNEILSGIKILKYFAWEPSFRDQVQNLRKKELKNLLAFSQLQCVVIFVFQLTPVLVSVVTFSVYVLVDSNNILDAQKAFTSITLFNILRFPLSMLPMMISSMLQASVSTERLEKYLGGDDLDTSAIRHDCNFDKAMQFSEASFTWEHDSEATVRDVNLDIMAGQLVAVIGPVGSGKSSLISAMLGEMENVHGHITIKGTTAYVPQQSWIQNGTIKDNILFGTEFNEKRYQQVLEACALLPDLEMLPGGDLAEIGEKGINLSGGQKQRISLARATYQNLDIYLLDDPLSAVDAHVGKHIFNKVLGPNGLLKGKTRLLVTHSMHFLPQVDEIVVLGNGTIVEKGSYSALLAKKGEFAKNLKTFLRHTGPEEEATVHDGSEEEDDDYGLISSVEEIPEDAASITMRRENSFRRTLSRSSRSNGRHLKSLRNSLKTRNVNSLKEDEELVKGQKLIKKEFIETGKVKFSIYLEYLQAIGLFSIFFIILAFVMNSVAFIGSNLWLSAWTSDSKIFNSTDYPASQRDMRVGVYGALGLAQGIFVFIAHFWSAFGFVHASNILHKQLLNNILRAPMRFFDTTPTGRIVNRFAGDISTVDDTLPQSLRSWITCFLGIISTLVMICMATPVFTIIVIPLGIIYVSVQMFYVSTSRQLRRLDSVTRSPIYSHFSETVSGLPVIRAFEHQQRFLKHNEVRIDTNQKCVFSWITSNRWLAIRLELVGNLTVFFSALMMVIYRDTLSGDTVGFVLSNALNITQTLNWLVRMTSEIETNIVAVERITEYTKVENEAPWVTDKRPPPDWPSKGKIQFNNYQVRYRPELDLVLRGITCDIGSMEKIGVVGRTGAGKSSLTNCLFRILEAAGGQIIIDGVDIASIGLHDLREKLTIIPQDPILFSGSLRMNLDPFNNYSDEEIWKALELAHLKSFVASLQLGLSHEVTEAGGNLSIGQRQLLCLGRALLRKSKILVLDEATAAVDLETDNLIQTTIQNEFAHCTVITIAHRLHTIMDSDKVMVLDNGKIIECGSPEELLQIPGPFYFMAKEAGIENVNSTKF
Experimental: To study the interaction of Compound 1 with hepatic efflux (ABC) transporters, TransportoCells™ membrane vesicles expressing BCRP, BSEP, MRP2, and control vector vesicles were pre-incubation with vesicle uptake buffer (47 mmol L-1 MOPs-Tris, 65 mmol L-1 KCl, 7 mmol L-1 MgCl2, pH 7.4 for BCRP; 47 mmol L-1 MOPs-Tris, 2.5 mmol L-1 GSH, 65 mmol L-1 KCl, 7 mmol L-1 MgCl2, pH 7.4 for MRP2; and 10 mmol L-1 HEPES-Tris, 100 mmol L-1 KNO3, 12.5 mmol L-1 Mg(NO3)2, and 50 mmol L-1 sucrose, pH 7.4 for BSEP) at 37° C. for 10 minutes. The transport was initiated by adding of pre-warmed 25 mmol/L MgATP, 3 μmol L-1 of Compound 1 in presence or absence of inhibitors (3 μmol L-1 of Novobioncin for BCRP, 100 μmol L-1 of MK-571 for MRP2, and 20 μmol L-1 of Ketoconazole for BSEP). The transport was terminated at designated time by adding 200 μL ice-cold vesicle uptake buffer. The complete content was then rapidly filtrated using multi-screen HTS vacuum manifold, followed by 5 washes and filtrations. The plate was allowed to dry completely and then placed onto a 96-well receiver plate. A 50 μL of elute solution (75% methanol containing the internal standard) was added into each assay well followed by centrifugation at 2000 rpm for 5 minutes. […] The yield samples from two centrifugation were combined and analyzed by LC-MS/MS. […]

OATP1B1/1B3 [2] = assay: Simcyp PBPK modeling of OATP1Bs-mediated drug-drug interaction; parameters: species or system human; conditions: Simcyp input parameter
Experimental: PBPK modeling was conducted using the Simcyp™ in silico bottom-up PBPK modeling.
Simcyp™ software Version 17.0.0 was used. Simcyp™ parameters are shown below in Table 3.

- Papp (Permeability (Papp)): 0.36 ×10⁻⁶ cm/s
- increase in plasma concentration/exposure in the presence of rifampin (OATP1B1/1B3 [1]): 4.5 fold
- Jmax (pmol/min/million cells), OATP1B3 (OATP1B3; Simcyp input parameter, Table 3): 24.39 pmol/min/million cells
- Km (OATP1B3; human, HEK293-FT cells stably transfected with OATP1B3 cDNA, Simcyp input parameter, Table 3): 4 µM
- CL R (OATP1B1/1B3 [2]): 2.000 L/h
Compound: O=[P@]1(S)OC[C@H]2O[C@@H]3[C@H](F)[C@@H]2O[P@](=O)(S)OC[C@H]2O[C@H]([C@H](F)[C@@H]2O1)n1cnc2c(ncnc21)NC/C=C/CNc1ncnc2c1ncn23 [Compound 1]
- substrate of OATP1B3 (OATP1B3; HEK293 cells overexpressing human OATP1B3): responsible for hepatic uptake; also recorded: substrate
- contribution of OATP1B3 versus OATP1B1 in hepatobiliary clearance (OATP1B3; phenotyping studies): predominant contribution of OATP1B3 over OATP1B1
- substrate of biliary efflux transporter MRP2 (MRP2): sequential biliary efflux; also recorded: substrate
